Some test systems named below: 786-0 renal; DMS 273 small cell lung; EKVX NSCLC; HCC-2998 colon; IGROV1 ovarian; M14 melanoma; NCI-H460 lung; NCI-H522 lung; SNB-75 CNS; DMS 114 small cell lung.
Holding throughout (assay): inhibition of tumour cell growth, NCI panel, 48 h

Each structure is given as a SMILES string. Values joined by “and” are separate entries in the source; they are usually repeats but may differ in a detail not shown here. Equal entries are not always repeated.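 All cell lines were grown in 96-well plates and treated with compound for 48 hours. The concentration for 50% growth inhibition is given as GI50. TGI marks complete inhibition of growth.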

As for `CC(=O)OCC(CC[CH2][Sn]([Cl])([Cl])[c]1ccccc1)OC(C)=O` (stereo unspecified), the GI50 was 19.1 µM in the assay with 786-0 renal; 20.6 µM in the assay on DMS 273 small cell lung; 44.4 µM with EKVX NSCLC; 28.2 µM in the assay on HCC-2998 colon; 25.5 µM with IGROV1 ovarian; 16.2 µM in the assay with M14 melanoma. For the same molecule, the GI50 was 19.6 µM in the assay with NCI-H460 lung, 41.1 µM in the assay with NCI-H522 lung and 55.8 µM with SNB-75 CNS. In addition, the TGI is 38 µM in the assay on 786-0 renal; 43.3 µM in the assay on DMS 273 small cell lung; greater than 100 µM in the assay with EKVX NSCLC; 83.1 µM in the assay on HCC-2998 colon; 68.8 µM in the assay on IGROV1 ovarian; 29.7 µM in the assay with M14 melanoma. In addition, the TGI is 38.8 µM in the assay on NCI-H460 lung, 55.6 µM in the assay on NCI-H522 lung and greater than 100 µM in the assay with SNB-75 CNS.

Turning to `C[P+]1(c2ccccc2)CCCCC1`, the TGI in the assay on 786-0 renal, in the assay with DMS 114 small cell lung, in the assay on DMS 273 small cell lung, in the assay with EKVX NSCLC, in the assay with HCC-2998 colon and in the assay with IGROV1 ovarian was greater than 100 µM throughout. In addition, the TGI with M14 melanoma, in the assay on NCI-H460 lung and in the assay with SNB-75 CNS was greater than 100 µM throughout.

Regarding `O=[N+]([O-])/C=C/c1ccc(Cl)cc1Cl`, the TGI with 786-0 renal is 42.2 µM; in the assay on DMS 114 small cell lung, 35.8 µM; in the assay with DMS 273 small cell lung, 29.7 µM; in the assay with HCC-2998 colon, 29 µM; in the assay with IGROV1 ovarian, 29.4 µM; in the assay with M14 melanoma, 24.4 µM. In addition, the TGI is 37.4 µM in the assay with NCI-H460 lung, 29.8 µM in the assay on NCI-H522 lung and 34.8 µM with SNB-75 CNS.

Take `CC1CCC2(C)C(CC=C(C=O)C2(O)C=O)C12CO2` (stereo unspecified): the TGI in the assay on 786-0 renal is 5.83 µM; in the assay with DMS 114 small cell lung, 4.84 µM; with DMS 273 small cell lung, 7.61 µM; in the assay on EKVX NSCLC, 23.3 µM; in the assay on HCC-2998 colon, 11.3 µM; in the assay with IGROV1 ovarian, 7.72 µM. Moreover, the TGI with M14 melanoma worked out at 6.29 µM; with NCI-H460 lung, 7.7 µM; with NCI-H522 lung it was 5.89 µM.

As for `O=C(Cc1ccccc1)C(c1ccccc1)S(=O)(=O)c1ccccc1` (stereo unspecified), the TGI in the assay with 786-0 renal, in the assay on DMS 114 small cell lung, with DMS 273 small cell lung, in the assay on EKVX NSCLC, in the assay on HCC-2998 colon and in the assay on IGROV1 ovarian was greater than 100 µM in each case. In addition, the TGI in the assay on M14 melanoma, in the assay on NCI-H460 lung, in the assay with NCI-H522 lung and in the assay with SNB-75 CNS was greater than 100 µM in each case.

For `CC(N)CC(=O)O` (stereo unspecified), the TGI with 786-0 renal, in the assay on DMS 114 small cell lung, in the assay on DMS 273 small cell lung, in the assay with EKVX NSCLC, in the assay with HCC-2998 colon and in the assay with IGROV1 ovarian was greater than 5000 µM in each case. For the same molecule, the TGI in the assay on M14 melanoma, in the assay with NCI-H460 lung, in the assay on NCI-H522 lung and in the assay with SNB-75 CNS was greater than 5000 µM throughout.

Consider `c1ccc(-c2csc3ncn4cnnc4c23)cc1`, for which the TGI with 786-0 renal, in the assay on DMS 114 small cell lung, with DMS 273 small cell lung, with EKVX NSCLC, with HCC-2998 colon and in the assay on IGROV1 ovarian was greater than 100 µM throughout. Moreover, the values for the TGI in the assay with M14 melanoma, in the assay with NCI-H522 lung and in the assay on SNB-75 CNS were greater than 100 µM, greater than 100 µM and 89.3 µM, respectively.

In the case of `O=c1[nH]c2ccccc2n1C1CCN(CCCC(c2ccc(F)cc2)c2ccc(F)cc2)CC1`, the GI50 was 1.75 µM and 2.79 µM with 786-0 renal; 1.66 µM and 8.47 µM with EKVX NSCLC; 1.5 µM with HCC-2998 colon; 1.96 µM in the assay with IGROV1 ovarian; 1.83 µM in the assay on M14 melanoma; 1.75 µM and 4.26 µM with NCI-H460 lung. Besides, the GI50 in the assay on NCI-H522 lung is 1.73 µM. Besides, the TGI is 3.38 µM and 7.58 µM with 786-0 renal; 6.52 µM in the assay with DMS 114 small cell lung; 11.9 µM with DMS 273 small cell lung; 4.54 µM and 22.7 µM in the assay on EKVX NSCLC; 2.9 µM and 3.84 µM with HCC-2998 colon; 3.86 µM and 32.4 µM with IGROV1 ovarian. The TGI in the assay with M14 melanoma is 3.72 µM and 8.19 µM; in the assay with NCI-H460 lung, 3.4 µM and 12 µM; in the assay with NCI-H522 lung, 3.36 µM and 10.4 µM; in the assay with SNB-75 CNS, 25.6 µM.

As for `CCOC(=O)C(CCCNC(=O)OC(C)(C)C)N(Cc1ccc(OC)cc1OC)C(=O)CC(=O)CP(=O)(OCC)OCC` (stereo unspecified), the TGI in the assay on 786-0 renal, in the assay on DMS 114 small cell lung, in the assay with DMS 273 small cell lung, in the assay with EKVX NSCLC, with HCC-2998 colon and with IGROV1 ovarian was greater than 100 µM in each case. Also, the TGI in the assay on M14 melanoma, in the assay on NCI-H460 lung, with NCI-H522 lung and in the assay with SNB-75 CNS was greater than 100 µM in each case.

On to `c1ccc(CN2COc3c(ccc4c5c(ccc34)CN(Cc3ccccc3)CO5)C2)cc1`, for which the TGI in the assay with 786-0 renal, in the assay with DMS 114 small cell lung, in the assay on EKVX NSCLC, with HCC-2998 colon, in the assay on IGROV1 ovarian and with M14 melanoma was greater than 100 µM throughout. Besides, the TGI in the assay with NCI-H460 lung, with NCI-H522 lung and with SNB-75 CNS was greater than 100 µM throughout.

Take `C=C1C=CC2(Br)OC3CC(C)(Cl)C(Br)CC13C2(C)C` (stereo unspecified): the TGI with 786-0 renal is greater than 100 µM; in the assay with DMS 114 small cell lung, 32.4 µM; with DMS 273 small cell lung, greater than 100 µM; with EKVX NSCLC, 61.9 µM; in the assay on HCC-2998 colon, 42.7 µM; with IGROV1 ovarian, 92.7 µM. Also, the TGI in the assay with M14 melanoma worked out at 53.2 µM; with NCI-H460 lung, 46 µM; in the assay with NCI-H522 lung it was 30.1 µM; in the assay with SNB-75 CNS, 77.7 µM.

In the case of `COc1ccc(/C=N\Nc2nc(SCC(C)C)nc(-c3ccc(OC)cc3)c2C#N)cc1`, the GI50 with 786-0 renal was 1.86 µM; with EKVX NSCLC it was 12.4 µM; with HCC-2998 colon it was 24.7 µM; with IGROV1 ovarian, 1.92 µM; with M14 melanoma, 13 µM; in the assay on NCI-H460 lung it was 0.548 µM. Further, the GI50 is 11.3 µM in the assay on NCI-H522 lung and 1.67 µM in the assay on SNB-75 CNS. Further, the TGI in the assay with 786-0 renal was determined as 9.33 µM; in the assay with EKVX NSCLC, 86.9 µM; in the assay on HCC-2998 colon, 99.4 µM; with IGROV1 ovarian it was 20 µM; in the assay with M14 melanoma, 92.2 µM; in the assay on NCI-H460 lung it was 11 µM. Also, the figures for the TGI in the assay with NCI-H522 lung and with SNB-75 CNS were 63.2 µM and 8.06 µM, respectively.

These data come from PubChem BioAssay (NCI).
